Data on six compounds can be found in US10065990B2, “Cyclic peptide compound, and preparation method, pharmaceutical composition and use thereof” (HANGZHOU GUANYU BIO-MEDICAL CO., LTD, priority 2013, dated 2018).

Structures are written as SMILES. Where two headings read alike, the source gives them in different places.

One assay deals with HDAC1 (Homo sapiens, UniProt Q13547). Briefly: HDAC biochemical activity measurement (fluorescent substrate deacetylation).
The target of the next assay is T1, HDAC7 (Homo sapiens, UniProt Q8WUI4).
T1 sequence (Q8WUI4 1-952): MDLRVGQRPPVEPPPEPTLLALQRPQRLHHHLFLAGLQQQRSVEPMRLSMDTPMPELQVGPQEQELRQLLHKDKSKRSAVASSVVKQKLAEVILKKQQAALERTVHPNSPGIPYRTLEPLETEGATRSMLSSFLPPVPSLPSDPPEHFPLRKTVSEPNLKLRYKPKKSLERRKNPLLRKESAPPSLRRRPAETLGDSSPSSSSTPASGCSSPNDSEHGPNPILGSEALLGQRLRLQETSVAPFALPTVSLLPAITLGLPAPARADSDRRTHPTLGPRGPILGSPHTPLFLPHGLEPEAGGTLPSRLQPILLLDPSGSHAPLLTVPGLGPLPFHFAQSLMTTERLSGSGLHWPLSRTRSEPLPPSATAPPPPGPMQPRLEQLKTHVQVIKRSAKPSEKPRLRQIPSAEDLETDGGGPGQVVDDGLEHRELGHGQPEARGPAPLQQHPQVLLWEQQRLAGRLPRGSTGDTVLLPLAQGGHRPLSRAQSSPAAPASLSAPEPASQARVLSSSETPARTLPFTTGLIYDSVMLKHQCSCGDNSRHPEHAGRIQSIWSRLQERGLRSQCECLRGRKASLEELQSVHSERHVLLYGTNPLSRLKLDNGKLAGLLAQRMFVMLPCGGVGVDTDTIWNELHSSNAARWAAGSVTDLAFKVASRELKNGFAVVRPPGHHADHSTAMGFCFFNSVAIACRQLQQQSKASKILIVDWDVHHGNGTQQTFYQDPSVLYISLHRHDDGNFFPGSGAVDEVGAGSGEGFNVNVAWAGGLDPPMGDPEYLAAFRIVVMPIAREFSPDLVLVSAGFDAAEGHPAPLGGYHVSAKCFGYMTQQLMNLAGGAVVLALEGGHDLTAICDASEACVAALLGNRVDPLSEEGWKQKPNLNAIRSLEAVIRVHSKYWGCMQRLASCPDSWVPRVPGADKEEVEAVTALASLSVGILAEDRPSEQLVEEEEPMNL
The description is as above. To be noted: HDAC7; 37° C. 30 minutes.

The next assay deals with HDAC2 (Homo sapiens, UniProt Q92769). The assay is described as above. To be noted: 37° C. 30 minutes.
A further assay has as its target T2, HDAC11 (Homo sapiens, UniProt Q96DB2).
T2 sequence (Q96DB2 1-347): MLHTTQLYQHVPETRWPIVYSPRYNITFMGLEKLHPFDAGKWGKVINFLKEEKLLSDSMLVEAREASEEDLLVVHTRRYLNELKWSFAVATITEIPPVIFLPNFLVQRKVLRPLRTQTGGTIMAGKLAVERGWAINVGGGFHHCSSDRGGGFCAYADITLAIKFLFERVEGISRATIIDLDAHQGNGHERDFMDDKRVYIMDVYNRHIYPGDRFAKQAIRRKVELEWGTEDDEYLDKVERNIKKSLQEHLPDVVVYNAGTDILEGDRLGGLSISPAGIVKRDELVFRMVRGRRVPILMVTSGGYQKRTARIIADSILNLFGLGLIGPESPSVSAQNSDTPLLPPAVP
The description is as above.

In assay [1] the test system is PANC-1 (Pac-1, human pancreatic cancer cells). Briefly: MTT cancer cell growth inhibition. It counts as cell-based. To be noted: Homo sapiens, PANC-1, 72 h, MTT, 72 hours incubation, read-out: GI50 PAN. The essentials: (§1)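 Growth inhibition is scored with MTT after three days of compound treatment spanning 10^−5–10^−10 M. Cells are maintained in DMEM or 1640 medium containing 10% FBS and plated at 1500 per well the previous night; absorbance at 570 nm gives viability, from which GI50 is calculated.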

In assay [2] the test system is MCF-7 (human breast cancer cells). Briefly: MTT cancer cell growth inhibition. It counts as cell-based. To be noted: Homo sapiens, MCF7, 72 h, 72 hours incubation, read-out: GI50 MCF. The essentials: as §1
Assay [3] relates to Huh-7 (human hepatoma cells). In words: MTT cancer cell growth inhibition. It counts as cell-based. To be noted: Homo sapiens, Huh-7, 72 h, MTT, 72 hours incubation, Huh-7 cells; read-out: GI50 Huh-7. The essentials: as §1
Assay [4] deals with A549 (human lung cancer cells). Briefly: MTT cancer cell growth inhibition. It counts as cell-based. To be noted: Homo sapiens, A549, 72 h, MTT, 72 hours incubation, read-out: GI50 A54. The essentials:
as §1

In assay [5] the test system is MDA-MB-231 (breast cancer cells). Briefly: MTT cancer cell growth inhibition. It is filed as cell-based. To be noted: Homo sapiens, MDA-MB-231, 72 h, read-out: GI50 MDA-MB-231, MTT, 72 hours incubation, MDA-MB-231 cells. The essentials:
as §1

Assay [6] has as its system lncap (prostate cancer cells). Briefly: MTT cancer cell growth inhibition. It counts as cell-based. To be noted: Homo sapiens, LNCaP, 72 h, MTT, 72 hours incubation, read-out: GI50 lnca. The essentials:
as §1

The subject of assay [7] is KBM5-T315I (human chronic myelogenous leukemia). In words: MTT cancer cell growth inhibition. It is filed as cell-based. To be noted: Homo sapiens, 72 h, MTT, 72 hours incubation, KBM5-T315I cells; read-out: GI50 KBM5-T315I. The essentials: as §1
Assay [8] relates to SGC-7901 (human gastric cancer cells). In words: MTT cancer cell growth inhibition. It is filed as cell-based. To be noted: Homo sapiens, SGC-7901, 72 h, MTT, 72 hours incubation, SGC-7901 cells; read-out: GI50 SGC-7901. The essentials:
as §1

The test system of assay [9] is MOLT-4 (human acute lymphoblastic leukemia cells). In words: MTT cancer cell growth inhibition. It is filed as cell-based. To be noted: Homo sapiens, MOLT-4, 72 h, MTT, 72 hours incubation, read-out: GI50 Mol. The essentials: as §1
The mark [10] stands for this setting: HDAC1, 37° C. 30 minutes, read-out: IC50 HDAC1.
Where [11] appears, read: Table 3, column C, read-out: IC50 HDAC1, C (six-membered ring with substituents).
Where [12] appears, read: read-out: IC50 HDAC11, HDAC11, 37° C. 30 minutes.
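For IC50 HDAC1 in this document: fluorogenic acetyl-lysine substrate (20 µM) deacetylated by HDAC1, then developer releases fluorophore read at 360 nm excitation and 460 nm emission, inhibitor incubated 30 min at 37 °C.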
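For IC50 HDAC1, C (six-membered ring with substituents) in this document: fluorogenic acetyl-lysine substrate (20 µM) deacetylated by HDAC1, then developer releases fluorophore read at 360 nm excitation and 460 nm emission, inhibitor incubated 30 min at 37 °C.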
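For IC50 HDAC7 in this document: fluorogenic deacetylation assay using acetyl-lysine substrate at 20 µM, enzyme and compound incubated 30 min at 37 °C, then developer added, fluorescence read at 360/460 nm.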

Chain of HDAC2 (Q92769 whole entry, species assumed): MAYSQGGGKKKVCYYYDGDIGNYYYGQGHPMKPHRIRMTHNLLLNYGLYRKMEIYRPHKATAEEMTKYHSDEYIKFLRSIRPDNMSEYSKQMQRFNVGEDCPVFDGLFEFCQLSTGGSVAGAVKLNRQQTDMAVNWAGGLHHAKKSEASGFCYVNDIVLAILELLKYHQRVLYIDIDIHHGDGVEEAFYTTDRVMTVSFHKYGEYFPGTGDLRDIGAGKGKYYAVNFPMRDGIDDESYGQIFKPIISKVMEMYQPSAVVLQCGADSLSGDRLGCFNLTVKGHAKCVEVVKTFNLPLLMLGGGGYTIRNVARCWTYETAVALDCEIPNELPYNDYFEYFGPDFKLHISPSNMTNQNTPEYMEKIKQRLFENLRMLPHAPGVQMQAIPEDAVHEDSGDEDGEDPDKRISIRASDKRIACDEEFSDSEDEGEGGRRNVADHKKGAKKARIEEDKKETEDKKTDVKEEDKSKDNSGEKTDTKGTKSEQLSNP
Chain of HDAC1 (Q13547 whole entry, species assumed): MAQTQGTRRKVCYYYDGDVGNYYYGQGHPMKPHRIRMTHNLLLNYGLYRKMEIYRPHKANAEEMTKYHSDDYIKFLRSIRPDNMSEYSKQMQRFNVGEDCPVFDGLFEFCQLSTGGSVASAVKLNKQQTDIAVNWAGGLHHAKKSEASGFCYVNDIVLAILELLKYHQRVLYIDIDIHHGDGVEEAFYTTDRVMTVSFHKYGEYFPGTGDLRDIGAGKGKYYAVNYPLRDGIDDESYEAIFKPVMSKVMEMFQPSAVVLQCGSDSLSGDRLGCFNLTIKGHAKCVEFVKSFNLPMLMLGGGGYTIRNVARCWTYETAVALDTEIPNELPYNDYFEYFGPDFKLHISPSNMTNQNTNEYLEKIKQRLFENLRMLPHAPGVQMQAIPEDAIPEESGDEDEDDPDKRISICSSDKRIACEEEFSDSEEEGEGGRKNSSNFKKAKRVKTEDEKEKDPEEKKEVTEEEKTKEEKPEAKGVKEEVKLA
Method for HDAC2: The chemical activity of the compound is determined according to the degree of deacetylation inhibition of the HDAC enzyme. This experiment measured the degree of deacetylation related to tumor proliferation and metastasis of HDAC1, HDAC2, HDAC3, HDAC8, HDAC11 five subtypes HDAC enzymes. After the substrate containing an acetylated lysine side chain and HDAC enzyme are labeled with a fluorescent label, the fluorescent substrate is de acetyl. The fluorescent labeled substrate is cleaved by the enzyme, and the fluorescent substance is released, which generates 460 nm emission light under the excitation of 360 nm light.
HDAC substrate was diluted with reaction buffer to 200M (reaction concentration of 20M), the HDAC enzyme was diluted to the appropriate concentration, then added different concentrations of the test compounds and acted at 37° C. 30 minutes, and then added the same volume of 2-times concentration substrate developing solution (developer), incubated at room temperature for 15 minutes.

The IC50 is the concentration that gives 50% inhibition. The GI50 is the concentration giving 50% growth inhibition. In the case of `C/C=C1\NC(=O)c2nc(ccc2F)CNC(=O)C[C@@H](/C=C/CCSC(=O)CCCCCC)OC(=O)[C@H](C(C)C)NC1=O` [Compound 33], the IC50 stood at 0.023 µM on HDAC1 (setting [10]), 0.023 µM at HDAC1 (setting [11]), 0.043 µM against HDAC2 and 0.089 µM at HDAC11 (setting [12]). The “IC50 HDAC7” value against HDAC7 was “no activity”. The GI50 in assay [1] turned out to be 0.08 µM; in assay [2], 0.05 µM; in assay [3], 0.031 µM; in [4], 0.05 µM; in [5], 0.031 µM; in assay [6], 0.03 µM. The GI50 in assay [7] was determined as 0.051 µM; in assay [8] it was 0.052 µM; in [9], 0.03 µM.
`C/C=C1\NC(=O)c2nc(ccc2F)CCNC(=O)C[C@@H](/C=C/CCSC(C)=O)OC(=O)[C@H](C(C)C)NC1=O` [Compound 103]: the IC50 at HDAC1 (setting [10]) is 0.038 µM; on HDAC2 it was 0.029 µM; at HDAC11, 0.093 µM. Besides, the “IC50 HDAC7” value on HDAC7 is “no activity”. Also, the GI50 in [1] was 0.08 µM; in assay [2], 0.03 µM; in [3] it was 0.047 µM; in assay [4], 0.04 µM; in assay [5] it was 0.039 µM; in assay [6], 0.02 µM. The results for the GI50 in assay [7], in [8] and in [9] were 0.051 µM, 0.037 µM and 0.02 µM, respectively.
For `C/C=C1\NC(=O)c2nc(ccc2F)CNC(=O)C[C@@H](/C=C/CCSC(=O)CCCCCCC)OC(=O)[C@H](C(C)C)NC1=O` [Compound 30], the IC50 at HDAC1 (setting [10]) is 0.012 µM; at HDAC1 (setting [11]), 0.012 µM; against HDAC2, 0.056 µM; on HDAC11 (setting [12]) it was 0.084 µM. On HDAC7, the “IC50 HDAC7” value is reported as “no activity”. For the same compound, the 50% growth inhibitory concentration (GI50) in assay [1] is 0.08 µM; in assay [2], 0.02 µM; in assay [3], 0.037 µM; in [4], 0.03 µM; in assay [5], 0.037 µM; in assay [6] it was 0.03 µM. Besides, the values for the 50% growth inhibitory concentration (GI50) in assay [7], in assay [8] and in assay [9] were 0.022 µM, 0.035 µM and 0.03 µM, respectively.
With `C/C=C1\NC(=O)c2cc(SCCC)cc(n2)CNC(=O)C[C@@H](/C=C/CCSC(=O)CCCCCCC)OC(=O)[C@H](CC)NC1=O` [Compound 175], the 50% inhibitory concentration (IC50) at HDAC1 (setting [10]) worked out at 0.041 µM; at HDAC2 it was 0.032 µM; on HDAC11, 0.055 µM. Further, the “IC50 HDAC7” value at HDAC7 is reported as “no activity”. Moreover, the 50% growth inhibitory concentration (GI50) came out at 0.05 µM in assay [1] (PANC-1 cells); 0.02 µM in assay [2] (MCF-7 cells); 0.027 µM in assay [3]; 0.1 µM in assay [4] (A549 cells); 0.029 µM in [5]; 0.08 µM in assay [6] (lncap cells). In addition, the GI50 in assay [7] stood at 0.047 µM; in [8] it was 0.062 µM; in assay [9] (MOLT-4 cells) it was 0.02 µM.
On to `C/C=C1\NC(=O)c2cc(F)cc(n2)CNC(=O)C[C@@H](/C=C/CCSC(C)=O)OC(=O)[C@H](CCCCNC(=O)OCC2c3ccccc3-c3ccccc32)NC1=O` [Compound 76], for which the IC50 at HDAC1 (setting [10]) came to 0.051 µM; on HDAC1 (setting [11]), 0.051 µM; at HDAC2, 0.036 µM; at HDAC11 (setting [12]) it was 0.094 µM. Moreover, on HDAC7, the “IC50 HDAC7” value is reported as “no activity”. For the same compound, the GI50 worked out at 0.07 µM in [1]; 0.03 µM in assay [2]; 0.026 µM in [3]; 0.05 µM in [4]; 0.026 µM in assay [5]; 0.02 µM in [6]. Besides, the GI50 in [7] amounted to 0.034 µM; in assay [8], 0.051 µM; in assay [9], 0.02 µM.
In the case of `C/C=C1\NC(=O)c2ccc(F)c(n2)CNC(=O)C[C@@H](/C=C/CCSC(=O)CC)OC(=O)[C@H](C(C)C)NC1=O` [Example 47], the IC50 at HDAC1 (setting [10]) was 0.071 µM; on HDAC2, 0.026 µM; against HDAC11, 0.083 µM. Also, the “IC50 HDAC7” value at HDAC7 is on record as “no activity”. Moreover, the 50% growth inhibitory concentration (GI50) in [1] is 0.04 µM; in assay [2], 0.05 µM; in [3], 0.024 µM; in assay [4], 0.04 µM; in assay [5], 0.024 µM; in assay [6], 0.02 µM. Moreover, the GI50 amounted to 0.056 µM in assay [7], 0.049 µM in assay [8] and 0.02 µM in [9].
